# From US12661396B2, “Selective targeting of the TREML1/MD2 interaction by small peptide or protein and its use for vaccine adjuvants” (Ascendo Biotechnology, Inc., priority 2020, dated 2026)
# Columns and labels:
# [1] = target: T1, mMD2 (Mus musculus, UniProt Q9JHF9); assay: Solid phase binding assay, mMD2 to immobilized mTREML1 stalk; details: stalk coated 5 ug/ml; FIG. 3B
# T1 sequence (Q9JHF9 19-160): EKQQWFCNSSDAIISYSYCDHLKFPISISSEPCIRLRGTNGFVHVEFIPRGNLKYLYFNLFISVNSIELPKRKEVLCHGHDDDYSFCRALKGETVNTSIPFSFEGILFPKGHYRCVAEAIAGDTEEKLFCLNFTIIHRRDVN
# Description: For TREML1 or mTREML1 stalk binding to human or mouse MD2 protein, TREML1 stalk or mTREML1 stalk (5 ug/ml in PBS) was coated separately on a 96-well plate. Recombinant hTLR4, hMD2, hCD14, or mMD2 was each serially diluted and added to the plates. Anti-His tag antibody-HRP was used as a detection antibody to detect the protein binding.
# [2] = system: CT26 colon cancer cells; assay: CT26 colon carcinoma model, tumor vaccine with adjuvant; assay type: in vivo, BALB/c mice; details: combined with tumor antigen 5E-GP70-15/aluminum mixture, s.c. on days 6 and 13; FIG. 9B
# Description: To test TREML1 ECD or its stalk as a vaccine adjuvant or immune booster, we use a CT26 colon carcinoma animal model. […] Briefly, CT26 colon cancer cells (3×10^5 cells) were injected subcutaneously into BALB/c mice on day 0. When the tumor grows to 30-100 mm^3 on day 6, tumor vaccines (tumor antigen 5E-GP70-15/aluminum mixture with or without mouse TREML1 stalk; 100 μL/mouse each time) were injected subcutaneously. The vaccinations were repeated on days 13. Tumor volumes were measured every 3-4 days. […] A DNA vaccine containing the gp70 gene has been used to induce protective immunity against CT26 cells. (J. Takeda et al., “Anti-tumor immunity against CT26 colon tumor in mice immunized with plasmid DNA encoding beta-galactosidase fused to an envelope protein of endogenous retrovirus,” Cell Immunol., (2000), 204(1): 11-18).
# For the establishment of syngeneic murine colon cancer models, BALB/c mice were subcutaneously injected in the back with 3×10^5 CT26 cells per mouse. When the volume of the inoculated tumor reached 30-100 mm^3, mice were randomly divided into cohorts for different treatments. […] During each animal study, tumor dimensions were monitored with caliper measurements, and the tumor volumes were calculated using the equation: […], wherein length is the longest diameter of the tumor and the width is the shortest diameter. […]
# [3] = system: BMDCs; assay: Mouse bone marrow derived dendritic cell maturation (flow cytometry); assay type: cell-based; details: FIG. 8
# Description: Femurs and tibiae were harvested from female C57BL/6 mice and extra muscle tissues were removed. Bones were disinfected in 70% ethanol, then rinsed with RPMI-1640 medium, and both ends were cut to flush out the bone marrow with RPMI-1640 medium using 26 G needle syringes. To disperse cell clumps, bone marrow suspension was pipetted in-and-out several times and washed twice with RPMI-1640 medium by centrifugation. […] At day 0, after cell counting, the leukocytes were seeded at a concentration of 2×10^6 cells/10 ml R10 medium containing 200 U/ml rmGM-CSF in sterile […] Petri dish and incubated at 37° C. with 5% CO2. At day 3, another 10 ml of R10 medium containing 200 U/ml rmGM-CSF was added. At days 6, one half of the supernatant was taken out and centrifuged to collect cell pellet, which was resuspend in original plate with 10 ml of R10 medium containing 200 U/ml GM-CSF. At day 8, non-adherent cells were collected by gentle pipetting and centrifuged at 300 g for 5 min. To obtain purer dendritic cells, the population of macrophages (F4/80^high) was removed with Anti-F4/80 MicroBeads UltraPure (130-110-443, Miltenyi Biotec, Bergisch Gladbach, Germany) following the manufacturer's instructions. Briefly, cell pellet was resuspended and mixed well in MACS buffer with Anti-F4/80 MicroBeads UltraPure. This mixture was incubated for 15 min in the dark in 4° C. After washing cells with MACS buffer, cells were resuspended in MACS buffer, filtered with 30 μm nylon mesh, and added to the MACS buffer rinsed column to separate F4/80^+ cells. Unlabeled cells were collected and washed with R10 medium. To freeze the cells, cell pellet was counted and resuspended at a concentration 1×10^7 cell in 2 ml CELLBANKER2 (#11891, ZENOAQ) per cryopreservation vial and stored at −80 degree Celsius.
# BMDCs were thawed for the DC maturation experiments. These cells were seeded at 1×10^6 cells/2 ml in R10 medium containing 200 U/ml rmGM-CSF in wells of a 6-well tissue culture dish and cultured to recover the cell viability at 37° C. with 5% CO2. After 6 hr, BMDCs were treated with various fragments of mTREML1 protein and cultured in 37° C. with 5% CO2. On the next day, resuspended cells were collected and analyzed by flow cytometry.
# Cells were centrifuged at 1800 rpm for 3 min in PBS containing 1% FBS and 0.1% sodium azide (PBSBA), and then divided at a concentration of 1×10^5 cells/100 ul PBSBA in flow tube. Before staining the surface marker of DC, cells were treated with mouse Fc blocker to avoid antibody non-specific binding at room temperature for 30 min. […] After PBSBA washing, samples were analyzed using the CytoFlex flow cytometer with the CytExpert software.
substance,measurement,setting,value
"mTREML1 stalk: mouse TREML1 stalk polypeptide, SEQ ID NO:4, EGEEAEDEKETYRIGTGSLLEDPSLDPSASAGPHEFRRRENSIP, chemically synthesized (listed as Mus musculus)",mouse MD2 binding to immobilized mTREML1 stalk,[1],can bind to the immobilized TREML1 stalk and mTREML1 stalk
same,"tumor volume, vaccine with mTREML1 stalk as adjuvant",[2],dramatic reduction in the tumor volumes
same,dendritic cell maturation effect compared with TNF-α,[3],significantly stronger than those of TNF-α
same,"dendritic cell maturation (DC maturation markers CD40, CD86, CD80, MHC II)",[3]; analyzed the next day,can trigger dendritic cell maturation
